Results taken from patent US20070280915A1, “Combination Therapies Employing A Composition Comprising A Hmg Coa Reductase Inhibitor And A Vitamin B6 Related Compound” (priority 2003, published 2007).

Legend:
[1] = biological target: T1, CYP2C9 (Homo sapiens, UniProt P11712); experiment: CYP2C9 inhibition assay (substrate MFC); type: in vitro ADME; conditions: 0.0169 to […] tested, na = concentration-dependent inhibition not observed
T1 construct: purchased Gentest Corp; host or cells: insect cells (baculovirus)
Experimental: […]. […] All determinations were performed in duplicate.

[2] = test system: patients who underwent percutaneous coronary intervention (PCI); experiment: Randomized double-blinded study of P5P vs placebo in high-risk percutaneous coronary intervention (PCI); type: in vivo
Source text: Inclusion criteria required prior determination for non-urgent PCI of a single-vessel lesion(s) and identification of ≧1 of the following clinical characteristics determining high risk for procedural-related ischemic complications (Califf R M, Abdelmeguid A E, Kuntz R E, Popma J J, Davidson C J, Cohen E A, Kleiman N S, Mahaffey K W, Topol E J, Pepine C J, et al. Myonecrosis after revascularization procedures. J Am Coll Cardiol 1998; 31:241-251; The ESPRIT Investigators. Novel dosing regimen of eptifibatide in planned coronary stent implantation: a randomised, placebo-controlled trial. Lancet 2000; 356:2037-2044): presence of an acute coronary syndrome (chest pain within 48 hours of PCI), recent AMI (≦7 days), diminished epicardial blood flow, angiographic thrombus, ejection fraction ≦30%, or vein graft lesion. In addition to any general contraindication to the PCI procedure or standard concomitant therapies, major exclusion criteria were creatine kinase (CK-MB) elevation above the upper limit of normal immediately before PCI, electrocardiographic evidence of atrial fibrillation or left bundle branch block, or evidence of any clinically significant abnormal laboratory finding (transaminases, bilirubin, or alkaline phosphatase >1.5 times the upper limit of normal or serum creatinine >1.8 mg/dl). Patients with elevated troponin measurements were permitted in the study provided that the peak troponin value was reported >24 hours before scheduled PCI, with documentation of a decreasing value before revascularization. […] Compliance and reasons for discontinued treatments were recorded for all patients.
Study end points and definitions—The primary objective of the study was to evaluate the feasibility of treatment with P5P as a cardioprotective agent in high-risk elective PCI. The primary end point of infarct size was evaluated by the trapezoidal rule (Press W H, Teukolsky S A, Vetterling W T, Flannery B P. Numerical Recipes. Cambridge, UK: Cambridge University Press, 1994:127-133.) using serial CK-MB enzyme measures performed at baseline and every 6 hours for 24 hours beginning immediately before initiation of PCI. The occurrence of myocardial ischemia within 24 hours after PCI was assessed as a secondary end point using continuous 12-lead electrocardiographic monitoring (Northeast Monitoring, Boston, Mass.). Evidence of periprocedural ischemia was defined as ST-segment depression of >100 μV within a 60-minute period of PCI, lasting ≧1 minute and separated from other episodes by 1 minute. Area under the curve ST-segment deviation was measured from the onset of the first to the last contrast injection. All cardiac markers and ST-segment monitoring data were analyzed by core laboratories blinded to treatment assignment (University of Maryland School of Medicine, Baltimore, Md.; Duke Ischemia Monitoring Laboratory, Durham, N.C.). Additional prespecified secondary end points included the 30-day composite and individual event rates of death; nonfatal infarction; new or worsening heart failure, or recurrent ischemia in addition to net clinical safety, which was defined as the absence of major adverse ischemic events; Thrombolysis In Myocardial Infarction (TIMI) major bleeding; and liver function or coagulation test abnormalities. Acute myocardial infarction (AMI) was defined as CK-MB elevation ≧3 times the upper limit of normal (upper limit of normal 7 ng/ml) and/or troponin T levels […] the upper limit of normal (upper limit of normal 0.1 ng/ml). If previous troponin (or CKMB) values were above the upper limit of normal, values were required to be 50% of the baseline measurement in addition to ≧2 times (≧3 times for CK-MB) the upper limit of normal to meet the definition of AMI. Routine chemistries, complete blood count, and coagulation assays were performed at baseline, 7 days, and 30 days after randomization. […]

T1 sequence (P11712 whole entry): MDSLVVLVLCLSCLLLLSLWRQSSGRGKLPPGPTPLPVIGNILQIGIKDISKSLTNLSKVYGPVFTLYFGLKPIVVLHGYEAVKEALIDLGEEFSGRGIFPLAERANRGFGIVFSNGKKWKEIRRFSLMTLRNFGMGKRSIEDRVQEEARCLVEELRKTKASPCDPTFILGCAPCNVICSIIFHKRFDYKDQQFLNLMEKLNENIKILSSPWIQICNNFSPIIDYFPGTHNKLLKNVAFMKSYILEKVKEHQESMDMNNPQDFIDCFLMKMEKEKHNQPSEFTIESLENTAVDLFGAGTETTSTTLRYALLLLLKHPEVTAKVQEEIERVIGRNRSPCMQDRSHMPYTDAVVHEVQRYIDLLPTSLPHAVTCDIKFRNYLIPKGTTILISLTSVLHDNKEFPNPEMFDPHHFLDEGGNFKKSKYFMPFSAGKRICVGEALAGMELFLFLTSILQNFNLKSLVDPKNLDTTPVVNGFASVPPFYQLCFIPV

## Cc1ncc(COP(=O)(O)O)c(C=O)c1O [P5P, pyridoxal-5-phosphate]
[1]
  Pyridoxal 5′-phosphate IC50: did not inhibit
[2]; 60 patients in safety analyses
  safety issues related to treatment: No safety issues
[2]; 24 h continuous electrocardiographic ST-monitoring, median (interquartile range)
  Area under the curve ST deviation: 1349 (951-2,263), μV-min
[2]; 24 h continuous electrocardiographic ST-monitoring, percent of patients
  Any post-PCI ischemia: 14.7-34%
[2]; 30 days
  deaths: no deaths
[2]; 30 days, vs 10.0% with placebo, p=1.0
  occurrence of 30-day nonfatal AMI: 12.8%
[2]; 30 days, vs 15.0% with placebo, p=1.0
  30-day composite adverse event rate (death, nonfatal AMI, new and/or worsening heart failure, or recurrent ischemia): 17.9%
[2]; at 7 and 30 days, vs placebo
  abnormalities of routine chemistries or coagulation studies: no apparent differences
[2]; mean per therapy subgroup, with or without adjunctive statin
  CK-MB max (mean): 0.73 ng/mL
[2]; median (interquartile range)
  Time to peak CK-MB: 11.0 (0-18.0), 36 h
[2]; median (interquartile range), P5P 10 mg/kg oral before PCI, then 5 mg/kg twice daily
  Area under the curve CK-MB: 1.1 (0.5-2.4), 39 ng/ml
[2]; median (interquartile range), baseline to within 24 hours after PCI
  Change in troponin T: 0 (0 = 0.7), 36 ng/ml
[2]; median (interquartile range), enteric-coated P5P 10 mg/kg oral before PCI, then 5 mg/kg twice daily 14 days
  Periprocedural cardiac markers: 18.6 (10.2-34.5),
[2]; patients receiving P5P vs placebo
  maximum periprocedural CK-MB level: significantly lower
[2]; vs 10.00% placebo, p=0.26
  need for blood product transfusion: 2.5%
[2]; vs 10.5% placebo, p=0.27
  occurrence of major bleeding: 2.8%
[2]; vs 25.0% placebo, p=0.77
  patients who discontinued drug therapy before completion of the prescribed 2 weeks: 30.8%
[2]; vs 32.9 with placebo, p=0.038
  median periprocedural CK-MB area under the curve (periprocedural infarct size, primary end point): 18.6 ng/mL
